Key:
[1] = Stability of rifampin and minocycline in PBS with and without tranexamic acid; type: physicochemical
Protocol: To determine the stability of active pharmaceutical ingredients, such as, for example, one or more of active pharmaceutical ingredients 26 when combined with a hemostatic agent, such as, for example, one or more of hemostatic agents 24, mixtures of rifampin and minocycline were prepared in phosphate-buffered saline (PBS) with and without tranexamic acid (TXA). The mixtures were tested both at room temperature (RT) (about 23° C.) and at 37° C.

blood clotting = test: Time required to induce blood clotting in vitro; type: biochemical
Protocol: Tests were conducted to compare the time required to induce blood clotting in vitro when different amounts of hemostatic agent is administered in the presence of TYRX (degradable mesh coated with P22-27.5 containing rifampin and minocycline), as shown in FIG. 23.
Tests were conducted to compare the time required for different hemostatic agents to induce blood clotting in vitro versus the time required to induce blood clotting in vitro when no hemostatic agent is administered. In particular, the time required to induce blood clotting was plotted for blood alone, TYRX, Surgicel, TYRX with 1.6 mg of TXA, 1.2 mg of TXA alone and TYRX with 200 mg of TXA. In this example, TYRX refers to a Glycoprene mesh that is coated with P22-27.5 (a polymer in the P22-X family) containing Rifampin and Minocycline.

[2] = In vitro elution of rifampin and minocycline from p22-27.5 polymers with TXA in the release media; type: physicochemical; settings: PBS pH 7.4 without TXA, with TXA 0.05 mg/mL or 5 mg/mL, over 25 hours
Source text: To determine the elution of active pharmaceutical ingredients, such as, for example, one or more of active pharmaceutical ingredients 26 from a polymer, such as, for example, one of the polymers discussed herein, in vitro when the active pharmaceutical ingredients are combined with a hemostatic agent, such as, for example, one or more of hemostatic agents 24, in vitro elution of rifampin and minocycline from polymers in the p22-27.5 family containing different amounts of tranexamic acid was evaluated in a PBS buffer over 25 hours. B1=PBS pH 7.4; B2=PBS, pH 7.4+TXA (0.05 mg/mL); B3=PBS, pH 7.4+TXA (5 mg/mL).

myofibroblast formation = settings: Ajmal et al. (2003); cited from earlier work

## NC[C@H]1CC[C@H](C(=O)O)CC1 [tranexamic acid]
[1]; RT and 37° C.
  effect on the stability of rifampin and minocycline: does not negatively affect the stability of rifampin and minocycline
Blood clotting; higher amounts of TXA (1.6 mg TXA vs 200 mg of TXA) in the presence of TYRX
  Clotting time: increased
Blood clotting; in vitro, 1.2 mg of TXA alone
  time required to induce blood clotting: about 19 minutes

## CO[C@H]1/C=C/O[C@@]2(C)Oc3c(C)c(O)c4c(O)c(c(/C=N/N5CCN(C)CC5)c(O)c4c3C2=O)NC(=O)/C(C)=C\C=C\[C@H](C)[C@H](O)[C@@H](C)[C@@H](O)[C@@H](C)[C@H](OC(C)=O)[C@@H]1C [rifampin]
[2]
  elution rate from p22-27.5 polymer: not affected by the presence of TXA
[1]; RT (about 23° C.) and 37° C., regardless of the temperature
  percentage area of rifampin, mixtures with versus without tranexamic acid: substantially the same

## O=S(=O)([O-])CCS.[Na+] [MESNA, sodium 2-mercaptoethane sulfonate]
Myofibroblast formation
  myofibroblast formation: diminish myofibroblast formation

From patent US10939901B2, “Customizable anchorage devices and methods of use” (TYRX, Inc., priority 2016, dated 2021)
